In paper PMC10696740 (BMC Biology, 2023):
Several values for one entry are separate records, joined by “and”; a condition that tells them apart may be missing. Identical values can stand only once. Entries after “also recorded” stand apart in the source; their conditions may differ. Like-named read-outs stand apart in the source and are kept apart here.

Columns and labels:
[1] = target: PaFtfL (P. anaerobius formate tetrahydrofolate ligase) (Peptostreptococcus anaerobius ATCC 27337); assay: crystal structure; sitting drop vapour diffusion at 22 °C, 10 mg/ml protein; three crystal forms: apo, apo crystals soaked with 1 mM ATP, and protein mixed with 1 mM BBR; protomers A/B and C/D form two dimers that assemble into a tetramer
PaFtfL F383A = PaFtfL F383A (Peptostreptococcus anaerobius, UniProt A0A379CIH2, F383A); type: binding, P. anaerobius; conditions: BLI
Description: (§1) A streptavidin matrix-coated sensor chip (SA chip) was firstly equilibrated with buffer A (lysis buffer with 0.05% Tween 20) followed with the immobilization BBP (200 μM) on the SA chip. Next, proteins with increasing concentrations (0.23, 0.91, 3.63, 14.50, and 58.00 μM) were passed on to the chip for the measurement of changes in response unit (nm). The program comprises the stabilization of the baseline with the buffer A for 1 min, 6 min incubation of the BBP with the SA chip for immobilization, stabilizing the baseline again for 3 min, association enabling interaction between proteins and compounds for 4 min, and dissociation for 4 min followed by a regeneration step. […] Raw data were pre-processed, analyzed, and fitted using the 1:1 binding model in the manufacturer’s software (9.0, Pall ForteBio Corp, Menlo Park, CA, USA) to generate kinetic parameters.

PaFtfL Y229A/F383A/W411A = type: binding, P. anaerobius; conditions: BLI, tri-mutant
Description: as §1

PaFtfL Y229A = type: binding, P. anaerobius; conditions: BLI, allosteric site mutant
Description: as §1

hsMTHFD1 [2] = target: T1, hsMTHFD1 (Homo sapiens, UniProt P11586); assay: Inhibition of hsMTHFD1 ligase activity; type: biochemical; conditions: hsMTHFD1, 0.4 mM BBR
T1 construct: His6 tag with thrombin site of pET28a (inferred) (N); made in house; host or cells: E. coli BL21 (DE3)
T1 sequence (P11586 whole entry): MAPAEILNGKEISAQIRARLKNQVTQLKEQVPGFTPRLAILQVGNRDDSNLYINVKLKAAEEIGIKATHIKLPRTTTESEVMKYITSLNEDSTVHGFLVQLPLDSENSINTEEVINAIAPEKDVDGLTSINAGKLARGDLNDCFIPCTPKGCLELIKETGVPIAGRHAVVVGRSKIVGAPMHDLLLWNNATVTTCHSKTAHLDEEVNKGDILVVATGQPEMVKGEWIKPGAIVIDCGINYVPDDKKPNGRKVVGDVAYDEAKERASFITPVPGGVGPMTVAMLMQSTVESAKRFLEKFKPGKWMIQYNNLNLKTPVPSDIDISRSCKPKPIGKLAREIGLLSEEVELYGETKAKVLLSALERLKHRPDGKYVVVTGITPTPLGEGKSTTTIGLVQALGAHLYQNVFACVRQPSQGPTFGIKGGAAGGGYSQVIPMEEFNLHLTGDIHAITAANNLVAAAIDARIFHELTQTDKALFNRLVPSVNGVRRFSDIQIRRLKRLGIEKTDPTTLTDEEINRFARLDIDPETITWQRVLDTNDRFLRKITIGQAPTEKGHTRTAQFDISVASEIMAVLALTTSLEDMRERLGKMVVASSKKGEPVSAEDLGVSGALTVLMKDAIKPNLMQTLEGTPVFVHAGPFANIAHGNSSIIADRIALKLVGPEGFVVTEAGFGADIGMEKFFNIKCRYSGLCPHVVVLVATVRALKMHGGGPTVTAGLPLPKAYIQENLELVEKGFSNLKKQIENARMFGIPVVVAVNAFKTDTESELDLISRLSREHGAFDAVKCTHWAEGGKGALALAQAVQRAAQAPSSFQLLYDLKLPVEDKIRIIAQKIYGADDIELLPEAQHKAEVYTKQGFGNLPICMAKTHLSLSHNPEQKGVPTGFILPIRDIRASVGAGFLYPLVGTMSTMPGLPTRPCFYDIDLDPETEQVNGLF
Description: (§2) Then, the reaction was initiated by adding substrates (2 mM tetrahydrofolate, 10 mM MgCl2, 40 mM sodium formate, and 5 mM ATP).
(§3) The product was detected with a maximum absorbance at 350 nm (ε = 24.9 mM^−1 cm^−1) using FLUOstar OPTIMA (BMG LABTECH, Offenburgh, Germany). The reaction was performed at 30 °C. The control reaction was performed by replacing BBR with DMSO. […] Data analysis was performed in GraphPad Prism 7.0.

[3] = test system: Lactobacillus reuteri DSM 17938; assay: Effect of BBR on the growth of probiotics; conditions: L. reuteri DSM 17938
[4] = test system: Lactobacillus acidophilus ATCC 4356; assay: Effect of BBR on the growth of probiotics; conditions: L. acidophilus ATCC 4356
[5] = test system: Lactobacillus fermentum CGMCC 1.1880; assay: Effect of BBR on the growth of probiotics; conditions: L. fermentum CGMCC 1.1880
hsMTHFD1L [6] = target: T2, hsMTHFD1L (Homo sapiens, UniProt Q6UB35); assay: Inhibition of hsMTHFD1L ligase activity; type: biochemical; conditions: 0.4 mM BBR
T2 sequence (Q6UB35 349-978 limits assumed): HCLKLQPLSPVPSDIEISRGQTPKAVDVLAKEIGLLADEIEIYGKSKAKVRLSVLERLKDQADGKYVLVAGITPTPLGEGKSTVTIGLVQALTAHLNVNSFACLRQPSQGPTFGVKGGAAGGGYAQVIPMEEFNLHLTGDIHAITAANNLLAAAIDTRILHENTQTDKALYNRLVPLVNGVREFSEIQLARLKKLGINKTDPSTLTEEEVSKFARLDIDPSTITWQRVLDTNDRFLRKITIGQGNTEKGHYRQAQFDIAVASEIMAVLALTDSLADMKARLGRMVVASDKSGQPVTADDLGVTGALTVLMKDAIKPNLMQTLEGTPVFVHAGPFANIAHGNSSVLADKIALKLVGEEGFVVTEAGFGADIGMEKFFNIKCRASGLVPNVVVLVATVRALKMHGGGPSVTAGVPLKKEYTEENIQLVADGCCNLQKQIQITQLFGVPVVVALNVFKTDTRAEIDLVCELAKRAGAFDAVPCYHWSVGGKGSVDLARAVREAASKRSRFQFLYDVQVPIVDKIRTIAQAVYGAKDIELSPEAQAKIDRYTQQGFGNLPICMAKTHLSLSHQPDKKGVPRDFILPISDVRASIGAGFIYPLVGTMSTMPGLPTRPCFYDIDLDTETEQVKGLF
Description: as §2, §3

[7] = target: FtfL from Clostridium perfringens (Clostridium perfringens, UniProt Q0TMI3); assay: biochemical
[8] = test system: Streptococcus faecalis ATCC 19433; assay: Growth inhibition of CRC pathogenic bacteria by BBR; conditions: S. faecalis ATCC 19433; 0.3 mM and 0.6 mM BBR
PaFtfL [9] = target: T3, PaFtfL (Peptostreptococcus anaerobius, UniProt A0A379CIH2); assay: Inhibition of FtfL enzymatic activity; type: biochemical; conditions: Inhibited by BBR (IC50), FtfL from Peptostreptococcus anaerobius, 20 nM enzyme
T3 sequence (A0A379CIH2 1-558): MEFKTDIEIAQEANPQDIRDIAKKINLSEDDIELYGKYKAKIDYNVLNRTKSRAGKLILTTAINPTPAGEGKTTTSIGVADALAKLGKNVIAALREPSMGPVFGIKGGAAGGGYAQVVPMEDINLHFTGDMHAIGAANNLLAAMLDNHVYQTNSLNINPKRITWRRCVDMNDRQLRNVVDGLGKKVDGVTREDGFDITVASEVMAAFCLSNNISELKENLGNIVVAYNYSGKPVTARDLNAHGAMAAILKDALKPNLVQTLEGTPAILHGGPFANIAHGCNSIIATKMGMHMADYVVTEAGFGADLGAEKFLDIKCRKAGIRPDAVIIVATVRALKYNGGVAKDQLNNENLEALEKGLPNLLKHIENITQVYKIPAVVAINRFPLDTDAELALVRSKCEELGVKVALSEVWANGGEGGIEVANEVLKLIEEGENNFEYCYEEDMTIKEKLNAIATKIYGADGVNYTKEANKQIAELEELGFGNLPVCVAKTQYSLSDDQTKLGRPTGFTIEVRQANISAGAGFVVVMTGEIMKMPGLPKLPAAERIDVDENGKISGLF
Description: (§4) The activities of the FtfL enzymes were measured according to the protocol described previously.
(§5) Then, the reaction was initiated by adding substrates (0.1 mM tetrahydrofolate, 2 mM MgCl2, 0.05 mM ATP, and 8 mM sodium formate).
as §3

[10] = target: FtfL from Bacteroides fragilis (Bacteroides fragilis, UniProt Q64U80); assay: Inhibition of FtfL enzymatic activity; type: biochemical
Description: as §4, §5, §3

[11] = target: FtfL from Clostridium symbiosum (Clostridium symbiosum, UniProt E7GR72); assay: Inhibition of FtfL enzymatic activity; type: biochemical
Description: as §4, §5, §3

[12] = target: FtfL from Clostridium ljungdahlii (Clostridium ljungdahlii, UniProt D8GTX8); assay: Inhibition of FtfL enzymatic activity; type: biochemical
FtfL from Clostridium ljungdahlii, sequence (D8GTX8 entry or part of it): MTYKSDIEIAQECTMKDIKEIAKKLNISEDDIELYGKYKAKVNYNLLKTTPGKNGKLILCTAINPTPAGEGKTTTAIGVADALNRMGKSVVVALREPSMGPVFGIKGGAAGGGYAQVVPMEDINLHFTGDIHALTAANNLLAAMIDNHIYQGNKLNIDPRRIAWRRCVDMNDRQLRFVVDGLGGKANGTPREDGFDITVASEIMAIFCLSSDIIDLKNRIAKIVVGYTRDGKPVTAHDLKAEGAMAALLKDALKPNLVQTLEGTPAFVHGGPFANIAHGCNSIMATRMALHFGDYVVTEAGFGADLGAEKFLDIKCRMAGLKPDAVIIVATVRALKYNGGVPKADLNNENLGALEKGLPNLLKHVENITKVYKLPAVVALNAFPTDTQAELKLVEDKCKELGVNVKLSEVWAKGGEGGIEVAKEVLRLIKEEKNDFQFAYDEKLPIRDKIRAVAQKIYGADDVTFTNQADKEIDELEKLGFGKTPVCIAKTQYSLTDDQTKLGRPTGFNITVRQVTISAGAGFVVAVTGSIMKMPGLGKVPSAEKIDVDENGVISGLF
Description: as §4, §5, §3

[13] = test system: FtfL from Clostridium sporogenes; assay: Inhibition of FtfL enzymatic activity; type: biochemical; conditions: ns = no significance, not inhibited by BBR
Description: as §4, §5, §3

[14] = target: FtfL from Lactobacillus plantarum (Lactiplantibacillus plantarum, UniProt Q88W76); assay: Inhibition of FtfL enzymatic activity; type: biochemical; conditions: 100 nM enzyme
FtfL from Lactobacillus plantarum, sequence (Q88W76 whole entry): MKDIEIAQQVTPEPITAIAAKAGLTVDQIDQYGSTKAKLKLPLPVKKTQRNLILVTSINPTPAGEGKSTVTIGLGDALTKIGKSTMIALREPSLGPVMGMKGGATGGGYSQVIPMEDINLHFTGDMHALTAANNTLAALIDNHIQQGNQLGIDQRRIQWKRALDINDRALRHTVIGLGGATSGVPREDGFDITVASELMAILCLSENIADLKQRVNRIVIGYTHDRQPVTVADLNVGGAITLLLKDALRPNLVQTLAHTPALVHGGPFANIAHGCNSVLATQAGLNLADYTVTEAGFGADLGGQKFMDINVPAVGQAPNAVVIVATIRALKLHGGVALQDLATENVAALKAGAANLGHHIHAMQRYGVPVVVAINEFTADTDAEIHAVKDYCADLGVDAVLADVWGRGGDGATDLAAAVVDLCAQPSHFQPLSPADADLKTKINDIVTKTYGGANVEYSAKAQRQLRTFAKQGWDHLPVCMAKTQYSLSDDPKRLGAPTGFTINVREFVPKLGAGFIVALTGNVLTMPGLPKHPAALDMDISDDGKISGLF
Description: as §4, §5, §3

[15] = target: FtfL from Lactococcus lactis (Lactococcus lactis subsp. lactis, UniProt Q9CH07); assay: Inhibition of FtfL enzymatic activity; type: biochemical
FtfL from Lactococcus lactis, sequence (Q9CH07 whole entry): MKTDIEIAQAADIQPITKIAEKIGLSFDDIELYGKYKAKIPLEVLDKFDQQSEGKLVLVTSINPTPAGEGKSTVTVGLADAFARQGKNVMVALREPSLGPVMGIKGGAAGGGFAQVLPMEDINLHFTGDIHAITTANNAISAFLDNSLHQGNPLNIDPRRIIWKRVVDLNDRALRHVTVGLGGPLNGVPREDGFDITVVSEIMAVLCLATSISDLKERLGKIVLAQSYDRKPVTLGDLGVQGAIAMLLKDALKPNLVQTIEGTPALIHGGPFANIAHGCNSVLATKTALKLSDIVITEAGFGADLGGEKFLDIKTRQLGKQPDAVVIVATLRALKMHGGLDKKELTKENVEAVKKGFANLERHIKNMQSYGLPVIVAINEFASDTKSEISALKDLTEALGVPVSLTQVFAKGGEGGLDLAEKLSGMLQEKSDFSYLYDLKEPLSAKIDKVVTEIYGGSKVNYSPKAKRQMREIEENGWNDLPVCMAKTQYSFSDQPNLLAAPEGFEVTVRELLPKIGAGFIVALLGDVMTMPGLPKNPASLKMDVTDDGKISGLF
Description: as §4, §5, §3

[16] = target: FtfL from Parabacteroides distasonis (Parabacteroides distasonis, UniProt A6LAR6); assay: Inhibition of FtfL enzymatic activity; type: biochemical
Description: as §4, §5, §3

PaFtfL [17] = target: T3, PaFtfL; conditions: 40 μM BBR
[18] = target: FtfL from Clostridioides difficile (Clostridioides difficile, UniProt Q189R2); assay: Inhibition of FtfL enzymatic activity; type: biochemical
[19] = test system: Lactobacillus plantarum DSM 13171; assay: Effect of BBR on the growth of probiotics; conditions: L. plantarum DSM 13171
[20] = test system: Lactobacillus bulgaricus BD 15; assay: Effect of BBR on the growth of probiotics; conditions: L. bulgaricus BD 15
[21] = test system: Peptostreptococcus anaerobius ATCC 27337; assay: Growth inhibition of CRC pathogenic bacteria by BBR; conditions: P. anaerobius ATCC 27337; 0.3 mM and 0.6 mM BBR
[22] = target: FtfL from Fusobacterium nucleatum (Fusobacterium nucleatum, UniProt Q8RHF4); assay: Inhibition of FtfL enzymatic activity; type: biochemical
hsMTHFD1L [23] = target: T2, hsMTHFD1L; conditions: BLI, 1:1 binding model
Description: as §1

hsMTHFD1 [24] = target: T1, hsMTHFD1; conditions: BLI, 1:1 binding model
Description: as §1

[25] = target: FtfL from Vibrio cholerae (Vibrio cholerae, UniProt Q9KLX7); assay: Inhibition of FtfL enzymatic activity; type: biochemical
[26] = test system: Clostridium symbiosum ATCC 14940; assay: Growth inhibition of CRC pathogenic bacteria by BBR; conditions: C. symbiosum ATCC 14940; 0.3 mM and 0.6 mM BBR
PaFtfL [27] = target: T3, PaFtfL; parameters: species or system P. anaerobius; conditions: BLI, wildtype PaFtfL, immobilized BBP, 1:1 binding model
Description: as §1

[28] = test system: Lactococcus lactis DSM 20481; assay: Growth inhibition of CRC pathogenic bacteria by BBR; conditions: L. lactis DSM 20481; 0.3 mM and 0.6 mM BBR
[29] = test system: Fusobacterium nucleatum ATCC 10953; assay: as above; conditions: F. nucleatum ATCC 10953; 0.3 mM and 0.6 mM BBR

Compound: PaFtfL (P. anaerobius formate tetrahydrofolate ligase) (enzyme)
- stoichiometry N [1]: 4

Compound: COc1ccc2cc3[n+](cc2c1OC)CCc1cc2c(cc1-3)OCO2 [BBR, Berberine]
- reduction of binding affinity versus wildtype PaFtfL (PaFtfL F383A; F383A): 34 fold
- Kd (PaFtfL F383A; active site mutant): 23.1 µM
- binding affinity of BBR with PaFtfL Y229A/F383A/W411A (PaFtfL Y229A/F383A/W411A): non-detectable
- binding affinity of BBR with PaFtfL Y229A (PaFtfL Y229A): The affinity is too weak to fit
- decrease of ligase enzyme activity (hsMTHFD1 [2]): 58%
- effect on bacterial growth [3]: little effect
- effect on bacterial growth [4]: promotes growth
- effect on bacterial growth [5]: little effect
- decrease of ligase enzyme activity (hsMTHFD1L [6]): 36%
- IC50 [7]: 105 ± 3.15 µM
- effect on bacterial growth [8]: dose-dependent inhibition; also recorded: inhibits the growth
- IC50 (PaFtfL [9]): 62 µM and 62.3 µM
- IC50 [10]: 105 ± 69.8 µM
- IC50 [11]: 129 ± 17.1 µM
- IC50 [12]: 83.8 ± 10 µM
- Inhibited by BBR (IC50) [13]: ns
- IC50 [14]: > 200 µM
- IC50 [15]: 118 ± 18.5 µM
- IC50 [16]: > 200 µM
- apparent Kcat of PaFtfL (PaFtfL [17]; substrate ATP): 16.7 ± 0.83 s⁻¹
- apparent Vmax of PaFtfL (PaFtfL [17]; substrate ATP): 0.010 ± 0.0005 mM/min
- apparent Kcat of PaFtfL (PaFtfL [17]; substrate THF): 78.3 ± 6.7 s⁻¹
- apparent Vmax of PaFtfL (PaFtfL [17]; substrate THF): 0.047 ± 0.004 mM/min
- IC50 [18]: 158 ± 68.7 µM
- effect on bacterial growth [19]: little effect
- effect on bacterial growth [20]: inhibits growth
- effect on bacterial growth [21]: dose-dependent inhibition; also recorded: inhibits the growth
- IC50 [22]: 106 ± 27 µM
- Kd (hsMTHFD1L [23]): 0.158 µM
- Kd (hsMTHFD1 [24]): 2.3 µM
- IC50 [25]: 130 ± 12.3 µM
- effect on bacterial growth [26]: dose-dependent inhibition; also recorded: inhibits the growth
- Kd (PaFtfL [27]): 0.674 µM
- effect on bacterial growth [28]: dose-dependent inhibition; also recorded: inhibits the growth
- effect on bacterial growth [29]: dose-dependent inhibition; also recorded: inhibits the growth
